Data taken from patent publication US5395836A, “8-tricycloalkyl xanthine derivatives” (Kyowa Hakko Kogyo Co., Ltd., priority 1993, dated 1995).

Columns and labels:
[1] = molecular target: T1, adenosine A1 receptor (Rattus norvegicus, UniProt P25099); assay: Adenosine Receptor Antagonizing Activity (Adenosine A1 Receptor Binding Test); conditions: rat corpus striatum; 3H-CHA 1.1 nM; 25° C., 90 min; Cheng-Prusoff
T1 construct: from tissue; host or cells: rat corpus striatum, washed membrane suspension
T1 sequence (P25099 1-326): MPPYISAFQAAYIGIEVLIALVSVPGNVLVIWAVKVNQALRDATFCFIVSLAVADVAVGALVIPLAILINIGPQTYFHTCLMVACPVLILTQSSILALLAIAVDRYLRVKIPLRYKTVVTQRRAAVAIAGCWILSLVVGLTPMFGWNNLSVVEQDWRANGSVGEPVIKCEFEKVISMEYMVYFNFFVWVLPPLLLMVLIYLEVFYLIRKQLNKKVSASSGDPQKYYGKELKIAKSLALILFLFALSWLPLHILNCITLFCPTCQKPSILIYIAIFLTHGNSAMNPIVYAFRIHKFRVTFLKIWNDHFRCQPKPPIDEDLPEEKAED
Experimental: The test was conducted according to the method of Bruns et al. [Proc. Natl. Acad. Sci. U.S.A., 77., 5547 (1980)] with slight modification.
Corpus striatum of a rat was suspended in ice-cooled 50 mM Tris hydroxymethyl aminomethane hydrochloride (Tris HCl) buffer (pH 7.7) by using Polytron homogenizer (manufactured by Kinematicas Co.). The suspension was centrifuged (50,000×g, 10 minutes), and the precipitate was suspended again in the same amount of 50 mM Tris HCl buffer. The suspension was centrifuged under the same conditions, and the final precipitate was suspended once again in 50 mM Tris HCl buffer to give a tissue concentration of 100 mg (wet weight)/ml. The tissue suspension was allowed to stand in the presence of 0.02 unit/mg tissue of adenosine deaminase (manufacture by Sigma Co.) at 37° C. for 30 minutes. The tissue suspension was centrifuged (50,000×g, 10 minutes) and to the obtained precipitates was added 50 mM Tris HCl buffer to give a tissue concentration of 10 mg (wet weight)/ml.
To 1 ml of the tissue suspension thus prepared, were added 50 μl of cyclohexyladenosine labeled with tritium (^3 H-CHA: 27 Ci/mmol, manufactured by New England Nuclear) (final concentration: 1.1 nM), and 50 μl of a test compound. The resulting mixture was allowed to stand at 25° C. for 90 minutes and then rapidly filtered by suction through a glass fiber filter (GF/C, manufactured by Whatman Co.). The filter was immediately washed three times with 5 ml each of ice-cooled 50 mM Tris HCl buffer, and transferred to a vial, and scintillator (EX-H by Wako Pure Chemical Industries, Ltd.) was added thereto. The radioactivity on the filter was determined with a liquid scintillation counter (manufactured by Packard Instrument Co.).
The inhibition rate (Ki value) of the test compound against the binding of A1 receptors (^3 H-CHA binding) was calculated by the equation of Cheng-Prusoff. [formula]

[2] = Activity on (R)-PIA-Induced Amnesia (step-through passive avoidance); assay type: in vivo, mouse (ddY-strain); conditions: oral, amnesia treatment +, n = 15, amnesia control 51.5 ± 17.0
Experimental: Anti-dementia effect of Compound (I) was determined with (R)-PIA[(R)-N^6 -(2-phenylisopropyl)adenosine]-induced dementia model [Jpn. J. Pharmacol. 52 (Suppl. II), 107P (1990)] As the experimental animal, groups of ddY-strain mice (weighing 20-25 g), each group consisting of fifteen mice, were used. The test was performed with a step-through type passive avoidance apparatus (the bright and dark box).
The bright and dark box was made up of a bright compartment (15×9×11 cm) lighted by 4 W white fluorescent light and a dark compartment (15×14×18 cm). […] In order to give a foot shock, the electric current (0.3 mA: 2 sec) may be passed through the grid floor of the dark compartment.
The compound to be tested was suspended in 0.3% aqueous solution of carboxymethyl cellulose (CMC) and the suspension was orally administered 60 minutes before the acquisition trial (to the normal control group and the amnesia control group which is subjected to the following amnesia treatment, only 0.3% CMC was administered). 30 minutes after the administration of the test compound, 0.3 mg/kg of (R)-PIA was administered intraperitoneally as amnesia-inducing treatment [(R)-PIA was not administered to the normal control group].
The training for acquisition of learning (acquisition trial) was carried out. The rat was introduced into the bright compartment, and after 10 seconds, the guillotine door was opened. The rat in the bright compartment rapidly moved into the dark compartment. As soon as the whole body of the rat entered the dark compartment, the guillotine door was closed and an electric current of 0.3 mA was passed through the grid floor for 2 seconds (foot shock). Immediately after the foot shock, the rat was taken out of the dark compartment.
The test trial for observing the retention and recall of the memory (recall trial) was carried out as follows. Twenty-four hours after the acquisition trial, the rat was placed in the bright compartment and the guillotine door was opened. The length of time before the rat entered the dark compartment (latency) was measured. The latency was measured up to 600 seconds and the latency longer than 600 seconds was recorded as 600 seconds.
The test of significance was carried out by Steel-test.

[3] = Diuretic Effect; assay type: in vivo, rat (Wistar); conditions: for Increase in amount of K+ excreted Δ(%) / Increase in amount of Na+ excreted Δ(%) / Increase in amount of urine Δ(%): control 0
Experimental: The experiment was performed by using Wistar rats (male; 150 to 300 g). The rats were starved for 18 hours prior to the administration of a test compound (n=4 to 5). After test compounds were dissolved in 0.4% methanol, 1% dimethylsulfoxide and 0.01N sodium hydroxide/physiological saline, and administered intravenously, the physiological saline (25 ml/kg) was orally administered. Alternatively, test compounds dissolved in the physiological saline (25 ml/kg) was orally administered to the rats. Urine was collected from the rats during 4 hours after the oral administration, and urine volume was measured by a graduated measuring cylinder, and the electrolytes in the urine (Na^+ and K^+) were determined by flame photometer (775 A manufactured by Hitachi, Ltd.).

[4] = Renal-protecting Effect (Glycerol-Induced Renal Failure Model); assay type: in vivo, rat (Wistar); conditions: ip, 24 h after glycerol; for Amount of creatinine in blood serum: 4.35 ± 0.23 (compound 3); for Amount of uria nitrogen in blood serum: 139.7 ± 10.2 (compound 3)
Experimental: A renal failure is a state where the renal function is lowered and the homeostasis of a body fluid can be no longer maintained. It is known that an acute renal failure characteristic of uriniferous tubule disorder is caused by subcutaneous or intramuscular injection of glycerol to rats [Can. J. Physiol.
Male Wistar rats were kept deprived of water for 18 hours, and served for the test. A test compound was intraperitoneally administered to the rats (dosage: 0.1 ml/100 g). After 30 minutes, the rats were anesthetized with ether and 50% glycerol was subcutaneously administered (dosage: 0.8 ml/100 g) to the rats, pinching the dorsal skin. Twenty four hours after the administration of glycerol, the rats were anesthetized with ether and 5 ml of blood was collected from the abdominal aorta. The collected blood was allowed to stand for 30 minutes or longer and then centrifuged at 3,000 rpm for 10 minutes, and the amounts of the serum creatinine and the serum urine-nitrogen (UN) were determined by auto analyzer (Olympus AU510) [creatinine test (Jaffe method), UN test (enzyme method); both tests were used in Olympus AU500/550 exclusive reagent […].

## CCCn1c(=O)c2[nH]c(C34C[C@H]5CC3C[C@@H](C4)[C@@H]5O)nc2n(CCC)c1=O (relative stereo) [Compound 3, 8-(Trans-9-hydroxy-3-tricyclo[3.3.1.0^3,7]nonyl)-1,3-dipropylxanthine]
[1]
  Ki: 0.23 nM
[2]; 0.08 mg/kg
  Recall trial average reaction latency: 404.3 ± 43.5 s
[2]; 0.31 mg/kg
  Recall trial average reaction latency: 438.8 ± 43.0 s
[2]; 1.25 mg/kg
  Recall trial average reaction latency: 445.5 ± 49.5 s
[2]; 5.0 mg/kg
  Recall trial average reaction latency: 430.5 ± 43.2 s
[3]; iv, 3 μg/kg, n = 5, 4 hours, control 1.47 ± 0.31
  Amount of K+ excreted: 1.24 ± 0.10 mEq/kg
[3]; iv, 3 μg/kg, n = 5, 4 hours, control 1.52
  Na+/K+: 2.99
[3]; iv, 3 μg/kg, n = 5, 4 hours, control 2.23 ± 0.61
  Amount of Na+ excreted: 3.71 mEq/kg
[3]; iv, 3 μg/kg, n = 5, urine over 4 hours, control 14.5 ± 1.8
  Amount of urine: 26.4 mL/kg
[3]; po, 0.01 mg/kg, 4 hours
  Increase in amount of K+ excreted Δ(%): 11%
  Increase in amount of Na+ excreted Δ(%): 139%
  Increase in amount of urine Δ(%): 99%
[3]; po, 0.01 mg/kg, 4 hours, control 1.00
  Na+/K+: 2.16
[3]; po, 0.1 mg/kg, 4 hours
  Increase in amount of K+ excreted Δ(%): -9%
  Increase in amount of Na+ excreted Δ(%): 148%
  Increase in amount of urine Δ(%): 105%
[3]; po, 0.1 mg/kg, 4 hours, control 1.00
  Na+/K+: 2.72
[4]; 0.01 mg/kg, control 3.90 ± 0.24 (compounds 6, 7)
  Amount of creatinine in blood serum: 2.00 ± 0.21 mg/dL
[4]; 0.01 mg/kg, control 124.9 ± 7.5 (compounds 6, 7)
  Amount of uria nitrogen in blood serum: 69.9 ± 8.4 mg/dL
[4]; 0.1 mg/kg, control 4.55 ± 0.24 (compound 5)
  Amount of creatinine in blood serum: 2.32 ± 0.16 mg/dL
[4]; 0.1 mg/kg, control 137.2 ± 5.0 (compound 5)
  Amount of uria nitrogen in blood serum: 64.4 ± 4.5 mg/dL
